Experimental data: PubChem BioAssay AID1963421 (Molecular Pharmacology Branch, DTP, NCI, 2024)

Tested on: 519858-162-T-J1-PDC complex spheroid growth, % test/control
Experiment: Anticancer human tumor 519858-162-T-J1-PDC patient-derived colon adenocarcinoma cell line growth inhibition [Asc]
Conditions: for IC50: curve of first compound; for viability, T/C: stronger effect = lower value
In short: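 Tumor cells were grown as multicellular spheroids with stromal HUVEC and mesenchymal stem cells and treated singly or in combination. Concentrations fell in half-log steps from the clinical Cmax, or from 10 microM where none was known.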
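Note: seven day drug exposure begun three days after spheroid seeding.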
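Throughout, for viability, T/C: 100% = DMSO vehicle wells and lower values mean less viable spheroid.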

In the case of Cc1nc(N2CCC3(CC2)COC(C)C3N)c(CO)nc1Sc1ccnc(N)c1Cl (centres undefined) + CNC(C)C(=O)NC1CN(S(=O)(=O)c2cccc(S(=O)(=O)N3CCC4CCC(C(=O)NC(c5ccccc5)c5ccccc5)N4C(=O)C(NC(=O)C(C)NC)C3)c2)CCC2CCC(C(=O)NC(c3ccccc3)c3ccccc3)N2C1=O, the IC50 (second compound 0.00316 µM) is reported as over 3 µM, the IC50 (second compound 0.01 µM) is reported as over 3 µM and the IC50 (second compound 0.0316 µM) is reported as over 3 µM. It also gave an IC50 (second compound 0.1 µM) of over 3 µM, an IC50 (second compound 0.316 µM) of over 3 µM and an IC50 (second compound 1 µM) of over 3 µM. For the same molecule, the viability, T/C (second compound 0.00316 µM, first compound 0.00949 µM) was 112%, the viability, T/C (second compound 0.00316 µM, first compound 0.03 µM) was 91.2% and the viability, T/C (second compound 0.00316 µM, first compound 0.0949 µM) was 91.2%. It also gave a viability, T/C (second compound 0.00316 µM, first compound 0.3 µM) of 62.1%, a viability, T/C (second compound 0.00316 µM, first compound 0.949 µM) of 62.1% and a viability, T/C (second compound 0.00316 µM, first compound 3 µM) of 71.1%. It also gave a viability, T/C (second compound 0.01 µM, first compound 0.00949 µM) of 100%, a viability, T/C (second compound 0.01 µM, first compound 0.03 µM) of 120% and a viability, T/C (second compound 0.01 µM, first compound 0.0949 µM) of 102%. It also gave a viability, T/C (second compound 0.01 µM, first compound 0.3 µM) of 68%, a viability, T/C (second compound 0.01 µM, first compound 0.949 µM) of 55.3% and a viability, T/C (second compound 0.01 µM, first compound 3 µM) of 61%. For the same molecule, the viability, T/C (second compound 0.0316 µM, first compound 0.00949 µM) was 83.8%, the viability, T/C (second compound 0.0316 µM, first compound 0.03 µM) was 91.4% and the viability, T/C (second compound 0.0316 µM, first compound 0.0949 µM) was 96.8%. For the same molecule, the viability, T/C (second compound 0.0316 µM, first compound 0.3 µM) was 81.5%, the viability, T/C (second compound 0.0316 µM, first compound 0.949 µM) was 84.5% and the viability, T/C (second compound 0.0316 µM, first compound 3 µM) was 60.8%. It also gave a viability, T/C (second compound 0.1 µM, first compound 0.00949 µM) of 87.7%, a viability, T/C (second compound 0.1 µM, first compound 0.03 µM) of 84.5% and a viability, T/C (second compound 0.1 µM, first compound 0.0949 µM) of 87.7%. It also gave a viability, T/C (second compound 0.1 µM, first compound 0.3 µM) of 72.6%, a viability, T/C (second compound 0.1 µM, first compound 0.949 µM) of 74.5% and a viability, T/C (second compound 0.1 µM, first compound 3 µM) of 64.8%. It also gave a viability, T/C (second compound 0.316 µM, first compound 0.00949 µM) of 96.9%, a viability, T/C (second compound 0.316 µM, first compound 0.03 µM) of 85.3% and a viability, T/C (second compound 0.316 µM, first compound 0.0949 µM) of 82.1%. The viability, T/C (second compound 0.316 µM, first compound 0.3 µM) was 71.4%, the viability, T/C (second compound 0.316 µM, first compound 0.949 µM) was 42.8% and the viability, T/C (second compound 0.316 µM, first compound 3 µM) was 64.2%. It also gave a viability, T/C (second compound 1 µM, first compound 0.00949 µM) of 103%, a viability, T/C (second compound 1 µM, first compound 0.03 µM) of 80.8% and a viability, T/C (second compound 1 µM, first compound 0.0949 µM) of 69.4%. It also gave a viability, T/C (second compound 1 µM, first compound 0.3 µM) of 74.5%, a viability, T/C (second compound 1 µM, first compound 0.949 µM) of 92.5% and a viability, T/C (second compound 1 µM, first compound 3 µM) of 75.7%.

O=C(c1cc(Cc2n[nH]c(=O)c3ccccc23)ccc1F)N1CCN(C(=O)C2CC2)CC1 + Cc1c(S(C)(=O)=O)c(-c2cc(F)cc(N3CCN(c4ccc(NS(=O)(=O)c5ccc(NC(CCN6CCC(C(=O)OCCCP(=O)(O)O)CC6)CSc6ccccc6)c(S(=O)(=O)C(F)(F)F)c5)cc4)CC3)c2)c(-c2ccc(Cl)cc2)n1C(C)C showed an IC50 (second compound 0.0316 µM) of over 10 µM, an IC50 (second compound 0.1 µM) of over 10 µM and an IC50 (second compound 0.316 µM) of over 10 µM. For the same molecule, the IC50 (second compound 1 µM) was over 10 µM, the IC50 (second compound 3.16 µM) was over 10 µM and the IC50 (second compound 10 µM) was over 10 µM. For the same molecule, the viability, T/C (second compound 0.0316 µM, first compound 0.0316 µM) was 68.1%, the viability, T/C (second compound 0.0316 µM, first compound 0.1 µM) was 92.3% and the viability, T/C (second compound 0.0316 µM, first compound 0.316 µM) was 77.4%. The viability, T/C (second compound 0.0316 µM, first compound 1 µM) was 104%, the viability, T/C (second compound 0.0316 µM, first compound 3.16 µM) was 91.5% and the viability, T/C (second compound 0.0316 µM, first compound 10 µM) was 68.3%. For the same molecule, the viability, T/C (second compound 0.1 µM, first compound 0.0316 µM) was 92.1%, the viability, T/C (second compound 0.1 µM, first compound 0.1 µM) was 107% and the viability, T/C (second compound 0.1 µM, first compound 0.316 µM) was 102%. It also gave a viability, T/C (second compound 0.1 µM, first compound 1 µM) of 75.8%, a viability, T/C (second compound 0.1 µM, first compound 3.16 µM) of 58.7% and a viability, T/C (second compound 0.1 µM, first compound 10 µM) of 78.3%. The viability, T/C (second compound 0.316 µM, first compound 0.0316 µM) was 100%, the viability, T/C (second compound 0.316 µM, first compound 0.1 µM) was 129% and the viability, T/C (second compound 0.316 µM, first compound 0.316 µM) was 77.8%. The viability, T/C (second compound 0.316 µM, first compound 1 µM) was 87.2%, the viability, T/C (second compound 0.316 µM, first compound 3.16 µM) was 101% and the viability, T/C (second compound 0.316 µM, first compound 10 µM) was 62.9%. The viability, T/C (second compound 1 µM, first compound 0.0316 µM) was 95.4%, the viability, T/C (second compound 1 µM, first compound 0.1 µM) was 100% and the viability, T/C (second compound 1 µM, first compound 0.316 µM) was 71.6%. The viability, T/C (second compound 1 µM, first compound 1 µM) was 73.8%, the viability, T/C (second compound 1 µM, first compound 3.16 µM) was 93.1% and the viability, T/C (second compound 1 µM, first compound 10 µM) was 100%. The viability, T/C (second compound 3.16 µM, first compound 0.0316 µM) was 76.5%, the viability, T/C (second compound 3.16 µM, first compound 0.1 µM) was 94% and the viability, T/C (second compound 3.16 µM, first compound 0.316 µM) was 74.8%. For the same molecule, the viability, T/C (second compound 3.16 µM, first compound 1 µM) was 84.1%, the viability, T/C (second compound 3.16 µM, first compound 3.16 µM) was 70.7% and the viability, T/C (second compound 3.16 µM, first compound 10 µM) was 86.6%. The viability, T/C (second compound 10 µM, first compound 0.0316 µM) was 71.6%, the viability, T/C (second compound 10 µM, first compound 0.1 µM) was 101% and the viability, T/C (second compound 10 µM, first compound 0.316 µM) was 58.2%. It also gave a viability, T/C (second compound 10 µM, first compound 1 µM) of 72.9%, a viability, T/C (second compound 10 µM, first compound 3.16 µM) of 65.2% and a viability, T/C (second compound 10 µM, first compound 10 µM) of 57.6%.
